Consider nine compounds from PubChem BioAssay (NCI).

Test systems include CAKI-1 renal; HCC-2998 colon; HL-60(TB) leukemia; HT29 colon; MDA-MB-435; NCI-H23 lung; OVCAR-3 ovarian; SF-295 CNS; SK-MEL-2 melanoma; SK-MEL-5 melanoma; SNB-19 CNS; SNB-75 CNS; U251 CNS; UO-31 renal; ACHN renal; LOX IMVI melanoma; HS 578T breast.
Holding throughout (assay): inhibition of tumour cell growth, NCI panel, 48 h

Each structure is given as a SMILES string.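 Results reflect a 48-hour exposure of cells in 96-well plates to compound at five concentrations. Definition used: TGI = concentration required for complete inhibition of growth.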 A value given as a limit tells only on which side of the number the result lay.

Consider `COc1cc(C2c3cc4c(cc3OC(Nc3ccccc3)C2C)OCO4)cc(OC)c1O` (stereo not drawn), for which the TGI was more than 100 µM with CAKI-1 renal; 14.6 µM in the experiment on HCC-2998 colon; 4.34 µM in the experiment on HL-60(TB) leukemia; 18.1 µM with HT29 colon; 1.95 µM in the experiment with MDA-MB-435; 33.5 µM in the experiment on NCI-H23 lung. Moreover, the TGI is 24.6 µM with OVCAR-3 ovarian; 15.6 µM in the experiment on SF-295 CNS; 8.59 µM in the experiment with SK-MEL-2 melanoma; 10.7 µM with SK-MEL-5 melanoma; more than 100 µM in the experiment with SNB-19 CNS; 7.35 µM in the experiment on SNB-75 CNS. Besides, the TGI in the experiment with U251 CNS is 14.2 µM; in the experiment with UO-31 renal, 25.8 µM.
With `CCCCCCNC(=O)CCC(NC(=O)c1ccc(N(C)Cc2cnc3nc(N)nc(N)c3n2)cc1)C(=O)NCCCCCC` (stereo not drawn), the TGI with ACHN renal, with CAKI-1 renal, with HCC-2998 colon, with HT29 colon, in the experiment on LOX IMVI melanoma and in the experiment on MDA-MB-435 was more than 100 µM each time. The TGI in the experiment with NCI-H23 lung was more than 100 µM; in the experiment on OVCAR-3 ovarian, more than 100 µM; in the experiment with SF-295 CNS, 30.3 µM; in the experiment with SK-MEL-2 melanoma it was more than 100 µM; in the experiment with SK-MEL-5 melanoma it was more than 100 µM; with SNB-19 CNS, more than 100 µM. Moreover, the TGI in the experiment with SNB-75 CNS, in the experiment with U251 CNS and in the experiment on UO-31 renal was more than 100 µM in each case.
`CCOC(=O)c1cc(I)c(-c2cc(C)no2)n1C`: the TGI was more than 100 µM in the experiment with ACHN renal; 54.7 µM in the experiment with CAKI-1 renal; 74.5 µM with HL-60(TB) leukemia; more than 100 µM in the experiment with HT29 colon; more than 100 µM with LOX IMVI melanoma; more than 100 µM with MDA-MB-435. Further, the TGI in the experiment with NCI-H23 lung, with OVCAR-3 ovarian, in the experiment with SF-295 CNS, in the experiment with SK-MEL-2 melanoma, with SK-MEL-5 melanoma and with SNB-19 CNS was more than 100 µM in each case. Further, the TGI in the experiment with SNB-75 CNS, in the experiment with U251 CNS and in the experiment on UO-31 renal was more than 100 µM in each case.
In the case of `CC1(C)O[C@@H](CCl)C[C@H](C#N)O1`, the TGI with ACHN renal, in the experiment with CAKI-1 renal, in the experiment with HCC-2998 colon, in the experiment with HL-60(TB) leukemia, in the experiment with HT29 colon and in the experiment with LOX IMVI melanoma was more than 100 µM in each case. Further, the TGI in the experiment on NCI-H23 lung, with OVCAR-3 ovarian, in the experiment with SF-295 CNS, in the experiment on SK-MEL-2 melanoma, in the experiment with SK-MEL-5 melanoma and in the experiment on SNB-19 CNS was more than 100 µM throughout. Also, the TGI in the experiment on SNB-75 CNS, in the experiment with U251 CNS and in the experiment with UO-31 renal was more than 100 µM each time.
For `COc1ccc2c(c1)C/C(=C\c1cccc3ccccc13)C2=O`, the TGI with ACHN renal, in the experiment with CAKI-1 renal, in the experiment on HCC-2998 colon, in the experiment on HL-60(TB) leukemia, in the experiment with HS 578T breast and with HT29 colon was more than 100 µM each time. The TGI in the experiment with LOX IMVI melanoma is more than 100 µM; in the experiment with NCI-H23 lung, 24.2 µM; in the experiment on OVCAR-3 ovarian it was 50.4 µM; in the experiment on SK-MEL-5 melanoma it was more than 100 µM; in the experiment with SNB-19 CNS, more than 100 µM; in the experiment on SNB-75 CNS, more than 100 µM. The TGI in the experiment on U251 CNS is 81.3 µM; with UO-31 renal it was more than 100 µM.
`CCCC(C)n1c(C)nc2c1C(=O)c1ccccc1C2=O` (stereo not drawn): the TGI was 95.8 µM in the experiment with ACHN renal; more than 100 µM in the experiment with HCC-2998 colon; more than 100 µM in the experiment on HL-60(TB) leukemia; more than 100 µM with HT29 colon; 23.6 µM in the experiment on LOX IMVI melanoma; 36.2 µM in the experiment on NCI-H23 lung. Also, the TGI with OVCAR-3 ovarian was 85.1 µM; with SF-295 CNS, more than 100 µM; in the experiment with SK-MEL-2 melanoma, 47.1 µM; in the experiment with SK-MEL-5 melanoma it was 30 µM; in the experiment with SNB-19 CNS, more than 100 µM; with SNB-75 CNS it was more than 100 µM. Further, the TGI with U251 CNS is more than 100 µM; in the experiment with UO-31 renal, 93.3 µM.
As for `CCO[C@@]1(COCc2ccccc2)OC(=O)C[C@@H]1N1C(=O)OC[C@@H]1c1ccccc1`, the TGI is more than 100 µM in the experiment with ACHN renal; 76.4 µM in the experiment with CAKI-1 renal; more than 100 µM with HCC-2998 colon; more than 100 µM with HL-60(TB) leukemia; more than 100 µM with HT29 colon; more than 100 µM in the experiment on LOX IMVI melanoma. Also, the TGI in the experiment with MDA-MB-435, with NCI-H23 lung, with OVCAR-3 ovarian, in the experiment on SF-295 CNS, with SK-MEL-2 melanoma and in the experiment with SK-MEL-5 melanoma was more than 100 µM each time. In addition, the TGI with SNB-19 CNS, in the experiment on SNB-75 CNS, with U251 CNS and in the experiment with UO-31 renal was more than 100 µM throughout.
Take `COc1cc(CNc2cnc3cc(N)ccc3n2)cc(OC)c1OC`: the TGI in the experiment on ACHN renal was more than 100 µM; in the experiment with CAKI-1 renal, more than 100 µM; with HCC-2998 colon, more than 100 µM; with HL-60(TB) leukemia, 39.8 µM; in the experiment with HT29 colon it was 55.8 µM; in the experiment with LOX IMVI melanoma, more than 100 µM. In addition, the TGI in the experiment on NCI-H23 lung is more than 100 µM; in the experiment with OVCAR-3 ovarian, 41.1 µM; in the experiment on SF-295 CNS it was 80.8 µM; with SK-MEL-2 melanoma, 2.38 µM; in the experiment with SK-MEL-5 melanoma it was more than 100 µM; in the experiment with SNB-19 CNS, more than 100 µM. Besides, the TGI in the experiment with SNB-75 CNS, in the experiment with U251 CNS and in the experiment on UO-31 renal was more than 100 µM each time.
On to `COP(=O)(OC)C(NC(=O)C(F)(F)F)(c1ccccc1)C(F)(F)F` (stereo not drawn), for which the TGI with ACHN renal, in the experiment with CAKI-1 renal, in the experiment on HCC-2998 colon, with HL-60(TB) leukemia, with HT29 colon and in the experiment on LOX IMVI melanoma was more than 100 µM each time. The TGI in the experiment on NCI-H23 lung, in the experiment with OVCAR-3 ovarian, in the experiment with SF-295 CNS, in the experiment with SK-MEL-2 melanoma, in the experiment on SK-MEL-5 melanoma and with SNB-19 CNS was more than 100 µM in each case. The TGI in the experiment on SNB-75 CNS, in the experiment with U251 CNS and in the experiment with UO-31 renal was more than 100 µM throughout.
